# ± gives the expanded uncertainty stated by the source.
# Legend:
# [1] = wn = mass fraction of the nth substance listed; settings: 298.15 K, 100 kPa, Liquid, Pycnometric method
# [2] = refractive index (Na D-line) (dimensionless); wn = mass fraction of the nth substance listed; settings: 298.15 K, 100 kPa, Liquid, Standard Abbe refractometry
smiles,measurement,setting,value
O=S(=O)([O-])[O-].[Cs+].[Cs+] [cesium sulfate] + O,mass density,[1]; w1 = 0.6463,2009.2 ± 24 kg/m3
same,refractive index,[2]; w1 = 0.6463,1.4095 ± 0.002
O=S(=O)([O-])[O-].[Rb+].[Rb+] [rubidium sulfate] + O,mass density,[1]; w1 = 0.3365,1363.1 ± 24 kg/m3
same,refractive index,[2]; w1 = 0.3365,1.3649 ± 0.002
O=S(=O)([O-])[O-].[Na+].[Na+] [sodium sulfate] + O,mass density,[1]; w1 = 0.218,1183 ± 24 kg/m3
same,refractive index,[2]; w1 = 0.218,1.3628 ± 0.002

# Source: the NIST ThermoML archive (doi:10.1021/acs.jced.8b00693)
